Where only a bound is given, the exact number is not on record here.

One assay concerns the target T1, human A2A AdoR (Homo sapiens, UniProt P29274).
T1 construct: purchased PerkinElmer RBHA2AM400UA
In words: Adenosine receptor binding assay, A2A ([3H]-CGS-21680). The following applies: membranes of HEK-293 cells expressing human A2A AdoR; read-out: hA2A IC50. Put shortly:
(§1)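 Filtration binding on membranes: A2A in HEK-293 with 6 nM [3H]-CGS-21680, Tris pH 7.4, 2 h; A2B in HEK-293 with 8 nM [3H]-DPCPX, HEPES pH 7.0, 1 h; A1 in CHO-K1 with 1 nM [3H]-DPCPX, HEPES pH 7.4, 1 h; room temperature. 8-point dilutions; IC50 converted to Ki (Cheng–Prusoff).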

Another assay has as its target T2, A1AdoR (Homo sapiens, UniProt P30542).
T2 construct: purchased PerkinElmer ES-010-M400UA
T2 sequence (P30542 1-326): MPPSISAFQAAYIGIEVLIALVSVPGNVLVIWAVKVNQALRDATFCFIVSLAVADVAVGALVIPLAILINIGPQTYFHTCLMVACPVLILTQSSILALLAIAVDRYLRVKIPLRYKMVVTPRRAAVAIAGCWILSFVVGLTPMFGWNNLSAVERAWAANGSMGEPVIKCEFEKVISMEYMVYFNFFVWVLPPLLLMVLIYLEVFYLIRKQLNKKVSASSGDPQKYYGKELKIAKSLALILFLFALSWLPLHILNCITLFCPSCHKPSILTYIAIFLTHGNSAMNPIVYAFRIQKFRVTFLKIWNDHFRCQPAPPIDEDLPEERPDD
In words: Adenosine receptor binding assay, A1 ([3H]-DPCPX). The following applies: ratio A1 vs A2A binding. Put shortly: as §1

In another assay the test system is phospho-CREB (pCREB). In words: Human whole blood phospho-CREB (pCREB) assay / modulation of pCREB in human immune cells. It is filed as cell-based. The conditions noted are these: agonist (NECA or CGS-21680)-stimulated human blood cells. The protocol:
Fresh human blood samples are derived from healthy volunteers and processed in heparin tubes. 67.5 ul of whole blood is aliquoted to each well in a 96-well plate and incubated at 37° C. for 30 min. Testing compounds are diluted with DMSO to make 8-point 3-fold serial dilution and 3.5 ul (20×) is added to each well. Cells are incubated with the compounds at 37° C. for 30 min. NECA (5 uM) is then added to each well and cells are incubated for 30 min at 37° C. Following the stimulation, cells are transferred to a 96-well deep well plates and fixed with 1 ml/well of lyse/fix buffer (1×) (BD Biosciences #558049) with vigorous shake at 37° C. for 10 min. Cells are centrifuged at 600 g for 6 min and washed twice with PBS, followed by addition of 800 ul/well Perm buffer III (BD Biosciences #558050). Cells are then pelleted at 600 g for 6 min, washed with FACS buffer (PBS+0.2% BSA+1 mM EDTA) and stained for 40 min at room temperature in the dark with an antibody cocktail containing PE mouse anti-human CD3 (BD Biosciences #555333, 1 ul/well), FITC mouse anti-human CD4 (BD Biosciences #5555346, 1 ul/well), PerCP-Cy™5.5 mouse anti-human CD8 (BD Biosciences #565310, 1 ul/well) and phospho-CREB (Ser133) (87G3) Rabbit mAb (Alexa Fluor® 647 Conjugate, CST #14001, 0.5 ul/well). Cells are then washed twice with FACS buffer and acquired on a flow cytometer (Sony Cell Sorter SH800). Data were analyzed using FlowJo version 9. The level of CREB phosphorylation from unstimulated cells (Low control: LC) and NECA-stimulated cells (High control: HC) are determined as mean fluorescent intensity (MFI) in stimulated condition/mean fluorescent intensity in unstimulated condition. % Inhibition is calculated as (MFI of HC-MFI of assay well)/(MFI of HC-MFI of LC)×100%. Data are analyzed and IC50s calculated using GraphPad Prism 5 and the model “log(inhibitor) vs. response—Variable slope”.
The A2A receptor is known to mediate CREB phosphorylation.
Venous blood from healthy volunteers, all of whom signed an informed consent approved by the Ethics Committee (FOR—UIC-BV-050-01-01 ICF HBS HD Version 5.0), was obtained via ImmuneHealth (Centre Hospitalier Universitaire Tivoli, La Louviere,
15 Belgium). Peripheral blood cells were treated with A2AR agonists CGS-21680 or NECA (Sigma-Aldrich, Diegem, Belgium), and a serial dilution of compounds disclosed herein (all used stock solutions at 10 mM in DMSO). All dilutions were prepared in RPMI1640 medium (with UltraGlutamine; Lonza, Venders, Belgium), and cells were incubated with compounds in a 37° C. humidified tissue culture incubator with 5% CO2.
After stimulation, cells were fixed and permeabilized, followed by intracellular staining using mouse anti-human pCREB antibodies (Clone J151-21; BD Biosciences) at room temperature. Data were acquired using an LSRFortessa flow cytometer (BD Biosciences) and analyzed using FlowJo software (FlowJo, LLC, Ashland, Oregon).

The target of the next assay is T3, human A2B AdoR (Homo sapiens, UniProt P29275).
T3 construct: purchased PerkinElmer ES-013-M400UA
T3 sequence (P29275 1-332): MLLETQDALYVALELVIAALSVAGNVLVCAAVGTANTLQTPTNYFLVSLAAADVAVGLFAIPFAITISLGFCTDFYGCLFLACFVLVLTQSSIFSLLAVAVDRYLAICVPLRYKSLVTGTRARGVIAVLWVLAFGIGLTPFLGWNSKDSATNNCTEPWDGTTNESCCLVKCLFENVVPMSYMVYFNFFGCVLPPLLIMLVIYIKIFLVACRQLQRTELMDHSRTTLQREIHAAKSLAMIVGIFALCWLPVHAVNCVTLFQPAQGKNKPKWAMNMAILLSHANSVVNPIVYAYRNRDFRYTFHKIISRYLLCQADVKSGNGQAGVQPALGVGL
As to the kind of experiment: Adenosine receptor binding assay, A2B ([3H]-DPCPX). The conditions noted are these: ratio A2B vs A2A binding. The protocol: Membranes prepared from CHO-K1 cells stably expressing Human AiAdoR (ES-010-M400UA), HEK-293 cells stably expressing human A2A AdoR (RBHA2AM400UA), HEK-293 cells stably expressing human A2B AdoR (ES-013-M400UA) and CHO-K1 cells stably expressing Human A3 AdoR (ES-012-M400UA) were purchased from PerkinElmer (Waltham, Mass., USA) and stored at −80° C. until use. Binding assays are performed using the radioligands. The final concentrations are as follows: [3H]-DPCPX (PerkinElmer, NET974001MC) at 1 nM for A1AdoR; [^3H]-CGS-21680 (PerkinElmer, NET1021250UC) at 6 nM for A2AAdoR, [3H]-DPCPX (PerkinElmer, NET974001MC) at 8 nM for A2BAdoR; [^3H]-HEMADO (ARC, Cat: ART1456) at 1 nM for A3AdoR. Testing compounds are diluted with DMSO to make 8-point 4-fold serial dilution. Nonspecific binding (Low control: LC) and total binding (High control: HC) are determined in the presence or absence of saturated cold ligand. Specific binding is calculated by subtracting nonspecific binding from total binding. All assays are performed in a final volume of 200 μl containing 1 μl of the test compound in DMSO, 100 μl of membrane preparation, and 99 μl of the radioligand in assay buffer (A1AdoR: 25 mM HEPES pH 7.4, 5 mM MgCl2, 1 mM CaCl2), 100 mM NaCl; A2AAdoR: 50 mM Tris HCl pH 7.4, 10 mM MgCl2, 1 mM EDTA; A2BAdoR: 50 mM HEPES pH 7.0, 5 mM MgCl2, 1 mM EDTA; A3AdoR: 25 HEPES pH 7.4, 10 mM MgCl2, 1 mM CaCl2), 0.5% BSA). The incubation is performed at room temperature with shaking at 300 rpm for 1 hour for A1AdoR, A2BAdoR and A3AdoR and 2 hours for A2AAdoR. After the incubation, the assay mixture is filtered through 96 GF/C filter plates (Perkin Elmer #6005174) using Perkin Elmer Filtermate Harvester, and then washed four times with ice-cold washing buffer (A1AdoR: 25 mM HEPES pH 7.4, 5 mM MgCl2, 1 mM CaCl2), 100 mM NaCl; A2AAdoR: 50 mM Tris HCl pH 7.4, 154 mM NaCl; A2BAdoR: 50 mM HEPES pH 6.5, 5 mM MgCl2, 1 mM EDTA, 0.2% BSA; A3AdoR: 50 mM Tris HCl pH 7.4). The filters are dried for 1 hour at 50° C. and [^3H] trapped on filter counted for radioactivity in Perkin Elmer Microscint 20 cocktail (#6013329) using Perkin Elmer MicroBeta2 Reader. The results are expressed as a percent inhibition of the control radioligand specific binding calculated using the following equation: % Inhibition=(1−(Assay well-Average_LC)/(Average_HC−Average_LC))×100%. Data are analyzed and IC50 is calculated using GraphPad Prism 5 and the model “log(inhibitor) vs. response—Variable slope”. The binding affinity of the compounds is determined by using the Cheng and Prusoff equation Ki=IC50/(1+[radioligand]/Kd).

T1 sequence (P29274 whole entry): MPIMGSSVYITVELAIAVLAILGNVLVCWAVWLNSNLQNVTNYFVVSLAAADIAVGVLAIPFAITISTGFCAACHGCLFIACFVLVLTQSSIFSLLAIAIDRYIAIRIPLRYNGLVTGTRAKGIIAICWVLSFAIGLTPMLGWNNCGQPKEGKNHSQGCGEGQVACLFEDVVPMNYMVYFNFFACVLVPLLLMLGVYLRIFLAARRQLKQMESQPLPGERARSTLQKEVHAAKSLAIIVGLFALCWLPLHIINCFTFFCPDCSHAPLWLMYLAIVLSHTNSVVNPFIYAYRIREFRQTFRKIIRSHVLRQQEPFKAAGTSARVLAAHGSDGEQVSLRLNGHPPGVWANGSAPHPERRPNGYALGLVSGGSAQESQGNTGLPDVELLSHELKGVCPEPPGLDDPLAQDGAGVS

The term IC50 denotes the concentration that inhibits the measured activity by half. As a reminder, the EC50 is the concentration needed to bring the measured effect to its halfway point. A higher EC50 goes with a need for much substance. Turning to `Cc1noc2cc(F)c(N3CCN(CCn4nc(Cl)c5c4nc(N)n4nc(-c6ccccn6)nc54)CC3)cc12`, the IC50 at human A2A AdoR was no more than 20 nM. For the same compound, the “A1/A2A Selectivity” value at A1AdoR was “b (greater than 100 but less than or equal to 1000)”. Further, the EC50 with phospho-CREB (pCREB) is no more than 20 nM. Besides, the “A2B/A2A Selectivity” value on human A2B AdoR is “a (greater than 1000)”.
Take `COCCOc1ccc(N2CCN(CCn3c(C#N)cc4c3nc(N)n3nc(-c5ccccn5)nc43)CC2)cc1`: the IC50 at human A2A AdoR was no more than 20 nM. The “A1/A2A Selectivity” value at A1AdoR is “b (greater than 100 but less than or equal to 1000)”. In the assay with phospho-CREB (pCREB), this compound showed an EC50 greater than 100 nM. Also, at human A2B AdoR, the “A2B/A2A Selectivity” value is “a (greater than 1000)”.
The like results for `COCCOc1ccc(N2CCN(CCn3c(C(N)=O)cc4c3nc(N)n3nc(-c5ccccn5)nc43)CC2)cc1` were, in that order, no more than 20 nM, “c (greater than 0 but less than or equal to 100)”, greater than 100 nM and “a (greater than 1000)”.
Taken in the same sequence, the figures for `N#Cc1cc2c(nc(N)n3nc(-c4ccccn4)nc23)n1CCN1CCN(c2cc(-c3ncco3)ccc2F)CC1` were no more than 20 nM, “a (greater than 1000)”, greater than 100 nM and “a (greater than 1000)”.
Taken in the same sequence, the figures for `CC#Cc1nc2c3cc(C#N)n(CCN4CCN(c5cc(-c6ncco6)ccc5F)CC4)c3nc(N)n2n1` were no more than 20 nM, “a (greater than 1000)”, greater than 100 nM and “a (greater than 1000)”.
Take `Cc1noc2cc(F)c(N3CCN(CCn4c(C#N)c(Cl)c5c4nc(N)n4nc(-c6ccccn6)nc54)CC3)cc12`: the IC50 at human A2A AdoR was no more than 20 nM. For the same compound, the “A1/A2A Selectivity” value at A1AdoR is reported as “a (greater than 1000)”. In the assay on phospho-CREB (pCREB), this compound returned an EC50 of 20 to 100 nM. Also, at human A2B AdoR, the “A2B/A2A Selectivity” value is “a (greater than 1000)”.
In the case of `Cc1noc2cc(F)c(N3CCN(CCn4c(C(N)=O)c(Cl)c5c4nc(N)n4nc(-c6ccccn6)nc54)CC3)cc12` [5-amino-9-chloro-7-[2-[4-(6-fluoro-3-methyl-1,2-benzoxazol-5-yl)piperazin-1-yl]ethyl]-2-(2-pyridyl)-[1,2,4]triazolo[1,5-c]pyrrolo[3,2-e]pyrimidine-8-carboxamide], the IC50 at human A2A AdoR is no more than 20 nM. Moreover, the “A1/A2A Selectivity” value at A1AdoR was “a (greater than 1000)”. Further, in the assay with phospho-CREB (pCREB), the EC50 was no more than 20 nM. Besides, the “A2B/A2A Selectivity” value on human A2B AdoR was “a (greater than 1000)”.
Regarding `NC(=O)c1cc2c(nc(N)n3nc(-c4ccccn4)nc23)n1CCN1CCN(c2cc(-c3ncco3)ccc2F)CC1`, the IC50 on human A2A AdoR was no more than 20 nM. Further, at A1AdoR, the “A1/A2A Selectivity” value is listed as “b (greater than 100 but less than or equal to 1000)”. The compound further registered an EC50 in the assay with phospho-CREB (pCREB) of 20 to 100 nM. Moreover, the “A2B/A2A Selectivity” value at human A2B AdoR was “a (greater than 1000)”.
The like results for `NC(=O)c1cc2c(nc(N)n3nc(-c4ccccn4)nc23)n1CCN1CCN(c2ccc(OCC(=O)O)cc2)CC1` were, in that order, no more than 20 nM, “b (greater than 100 but less than or equal to 1000)”, 20 to 100 nM and “a (greater than 1000)”.
The like results for `Cc1c(C(=O)O)n(CCN2CCN(c3cc(-c4ncco4)ccc3F)CC2)c2nc(N)n3nc(-c4ccccn4)nc3c12` were, in that order, no more than 20 nM, “a (greater than 1000)”, no more than 20 nM and “a (greater than 1000)”.
As to `Cc1noc2cc(F)c(N3CCN(CCn4c(C#N)cc5c4nc(N)n4nc(-c6ccccn6)nc54)CC3)cc12`, the half-inhibitory concentration (IC50) on human A2A AdoR was no more than 20 nM. Moreover, the “A1/A2A Selectivity” value at A1AdoR is on record as “c (greater than 0 but less than or equal to 100)”. The compound further had an EC50 in the assay on phospho-CREB (pCREB) greater than 100 nM. For the same compound, the “A2B/A2A Selectivity” value at human A2B AdoR is “a (greater than 1000)”.

Values taken from US20230024108A1, “ADENOSINE A2A RECEPTOR ANTAGONISTS” (Teon Therapeutics, Inc., priority 2019, published 2023).
